# Data taken from publication PMC13342671 (Nature Communications, 2026).
# Tests used:
# Assay type in all cases: cell-based, Human
# [1] = test system: p53 pathway genes in BxPC-3 cells; test: RNA sequencing / GSEA in BxPC-3 cells; conditions: 3 µM, 4 h
# [2] = test system: A549-p53^Y220C cells; test: Apoptosis FACS; conditions: 3 µM
# [3] = test system: A549-p53^Y220C cells; test: SA-β-galactosidase senescence stain; conditions: 3 µM, 6-day treatment
Structure (SMILES),share of the top 116 p53 target genes with significantly increased expression [1] [%],apoptosis induction (in words) [2],SA-β-gal senescence staining (in words) [3]
CCn1c2ccc(CNCCOCCOCCOCCn3cc(COc4ccc(CCc5nc6cc(-c7c(C)noc7C)ccc6n5CCN5CCOCC5)cc4F)nn3)cc2c2ccc(-c3cc(C)cs3)cc21 [MS78],22.8,,
Cc1sc2c(c1C)C(c1ccc(Cl)cc1)=N[C@@H](CC(=O)OC(C)(C)C)c1nnc(C)n1-2 [JQ1],57.0,slightly less apoptosis,relatively few senescent cells
